Measurements reported in patent US20100158992A1, “PIPERAZINE-SUBSTITUTED PYRIDAZINONE DERIVATIVES USEFUL AS GLUCAN SYNTHASE INHIBITORS” (Schering Corporation, priority 2007, published 2010).
Converted amounts (≈) assume the structure as drawn.

How the values were obtained:
Format in all cases: cell-based
Candida glabrata (C624) = assay: Microbroth susceptibility testing, yeast (MIC); conditions: Nakaseomyces glabratus; strain C624
Procedure: (§1) Microbroth Susceptibility Testing Methods
(§2) Yeast susceptibility testing procedure followed the NCCLS document M27-A2 (Reference Method for Broth Dilution Antifungal Susceptibility Testing of Yeasts; Approved Standard-Second Edition (ISBN 1-56238-469-4). NCCLS, 940 West Valley Road, Suite 1400 Wayne, Pa. 19087-1898 USA, 2002) with the following modifications:
(§3) 1. The final test volume was 100 μl and not 200 μl as stipulated. 2. For testing Saccharomyces cerevisiae strain PM503 YPD was used in place of RPMI 1640 broth.

Candida albicans (C697) = assay: Microbroth susceptibility testing, yeast (MIC); conditions: strain C697
Procedure: as §1, §2, §3

Candida albicans (C693) = assay: Microbroth susceptibility testing, yeast (MIC); conditions: strain C693
Procedure: as §1, §2, §3

[1] = system: Saccharomyces cerevisiae (C51); assay: Microbroth susceptibility testing, yeast (MIC); conditions: read-out: MIC Saccharomyces cerevisiae (C51)
Procedure: as §1, §2, §3

[2] = system: Aspergillus fumigatus (ND158); assay: Microbroth susceptibility testing, filamentous fungi (MEC); conditions: strain ND158, minimum effective concentration
Procedure: Microbroth Susceptibility Testing Methods Filamentous fungi susceptibility testing procedure follows the NCCLS document M38-A (Reference Method for Broth Dilution Antifungal Susceptibility Testing of Filamentous Fungi; Approved Standard (ISBN 1-56238-470-8). NCCLS, 940 West Valley Road, Suite 1400 Wayne, Pa. 19087-1898 USA, 2002) with the following modifications: 1. The final test volume was 100 μl and not 200 μl as stipulated. 2. The end point used to assess the in vitro activity of glucan synthase inhibitors may require microscopic evaluation of cell morphology in the test wells (Kurtz et al., Antimicrobial Agents and Chemotherapy, 38, 1480-1489, 1994; […] et al., Antimicrobial Agents and Chemotherapy, 45, 327-330, 2001).

| SMILES | MIC (Candida glabrata (C624)) [µg/mL] | MIC (Candida albicans (C697)) [µg/mL] | MIC (Candida albicans (C693)) [µg/mL] | MIC [1] [µg/mL] | minimal effective concentration [2] [µg/mL] |
| --- | --- | --- | --- | --- | --- |
| O=c1c(SCc2ccccc2)c(N2CCN(Cc3cc(O)cc(O)c3)CC2)cnn1-c1ccccc1 [compound 1] | 1 to 5 (≈ 2 to 9.99 µM) | 5 to 50 (≈ 9.99 to 99.9 µM) | 5 to 50 (≈ 9.99 to 99.9 µM) | 5 to 50 (≈ 9.99 to 99.9 µM) | 5 to 50 |
| COc1ccc(CCOc2c(N3CCN(Cc4ccccc4O)CC3)cnn(-c3ccccc3)c2=O)cc1 [compound 316] | 5 to 50 (≈ 9.75 to 97.5 µM) | 5 to 50 (≈ 9.75 to 97.5 µM) | 5 to 50 (≈ 9.75 to 97.5 µM) | 0.5 to 1 (≈ 0.975 to 1.95 µM) | 1 to 5 |
| CCOC(=O)C1CCCN(c2c(N3CCN(C(=O)c4ccc5[nH]cnc5c4)CC3)cnn(-c3ccccc3)c2=O)C1 (stereo not shown) [compound 136] | 5 to 50 (≈ 9 to 90 µM) | 5 to 50 (≈ 9 to 90 µM) | 5 to 50 (≈ 9 to 90 µM) | 5 to 50 (≈ 9 to 90 µM) | 5 to 50 |
| O=c1c(OC2Cc3ccccc3C2)c(N2CCN(Cc3ccoc3)CC2)cnn1-c1ccccc1 [compound 343] | 1 to 5 (≈ 2.13 to 10.7 µM) | 1 to 5 (≈ 2.13 to 10.7 µM) | 5 to 50 (≈ 10.7 to 107 µM) | < 0.5 | 0.5 to 1 |
| COc1ccc(Sc2c(N3CCN(S(=O)(=O)c4cccs4)CC3)cnn(-c3ccccc3)c2=O)cc1 [compound 66] | 0.5 to 1 (≈ 0.925 to 1.85 µM) | 5 to 50 (≈ 9.25 to 92.5 µM) | 5 to 50 (≈ 9.25 to 92.5 µM) | 1 to 5 (≈ 1.85 to 9.25 µM) | 1 to 5 |
| O=c1c(OCCC2CCCCC2)c(N2CCN(Cc3cccc(O)c3)CC2)cnn1-c1ccccc1 [compound 373] | 1 to 5 (≈ 2.05 to 10.2 µM) | 1 to 5 (≈ 2.05 to 10.2 µM) | 5 to 50 (≈ 10.2 to 102 µM) | 0.5 to 1 (≈ 1.02 to 2.05 µM) | 5 to 50 |
| CCOC(=O)C1CCCN(c2c(N3CCN(C(=O)c4c[nH]c5ccccc45)CC3)cnn(-c3ccccc3)c2=O)C1 (stereo not shown) [compound 114] | 5 to 50 (≈ 9.01 to 90.1 µM) | 5 to 50 (≈ 9.01 to 90.1 µM) | 5 to 50 (≈ 9.01 to 90.1 µM) | 5 to 50 (≈ 9.01 to 90.1 µM) | 5 to 50 |
| O=c1c(SCc2ccccc2)c(N2CCN(S(=O)(=O)c3ccccc3[N+](=O)[O-])CC2)cnn1-c1ccccc1 [compound 67] | 1 to 5 (≈ 1.77 to 8.87 µM) | 5 to 50 (≈ 8.87 to 88.7 µM) | 5 to 50 (≈ 8.87 to 88.7 µM) | 5 to 50 (≈ 8.87 to 88.7 µM) | 5 to 50 |
| CCOC(=O)C1CCCN(c2c(N3CCN(C(=O)CSc4nccc(C)n4)CC3)cnn(-c3ccccc3)c2=O)C1 (stereo not shown) [compound 130] | 1 to 5 (≈ 1.73 to 8.65 µM) | 5 to 50 (≈ 8.65 to 86.5 µM) | 5 to 50 (≈ 8.65 to 86.5 µM) | 5 to 50 (≈ 8.65 to 86.5 µM) | 5 to 50 |
| Cc1cccc(CN2CCN(c3cnn(-c4ccccc4)c(=O)c3SC(C)C)CC2)c1 [compound 9] | 0.5 to 1 (≈ 1.15 to 2.3 µM) | 5 to 50 (≈ 11.5 to 115 µM) | 5 to 50 (≈ 11.5 to 115 µM) | 0.5 to 1 (≈ 1.15 to 2.3 µM) | 5 to 50 |
| O=c1c(N2CCOCC2)c(N2CCN(S(=O)(=O)Cc3ccccc3)CC2)cnn1-c1ccccc1 [compound 253] | 1 to 5 (≈ 2.02 to 10.1 µM) | 1 to 5 (≈ 2.02 to 10.1 µM) | 5 to 50 (≈ 10.1 to 101 µM) | 1 to 5 (≈ 2.02 to 10.1 µM) | 5 to 50 |
| CCOC(=O)C1CCCN(c2c(N3CCN(S(=O)(=O)c4c(F)cccc4F)CC3)cnn(-c3ccccc3)c2=O)C1 (stereo not shown) [compound 236] | 0.5 to 1 (≈ 0.851 to 1.7 µM) | 1 to 5 (≈ 1.7 to 8.51 µM) | 1 to 5 (≈ 1.7 to 8.51 µM) | 1 to 5 (≈ 1.7 to 8.51 µM) | 1 to 5 |
| CC(C)OCCCNc1c(N2CCN(S(=O)(=O)Cc3ccccc3)CC2)cnn(-c2ccccc2)c1=O [compound 254] | 1 to 5 (≈ 1.9 to 9.51 µM) | 5 to 50 (≈ 9.51 to 95.1 µM) | 5 to 50 (≈ 9.51 to 95.1 µM) | 1 to 5 (≈ 1.9 to 9.51 µM) | 5 to 50 |
| COc1ccc(Sc2c(N3CCN(S(=O)(=O)c4ccccc4)CC3)cnn(-c3ccccc3)c2=O)cc1 [compound 74] | 0.5 to 1 (≈ 0.935 to 1.87 µM) | 1 to 5 (≈ 1.87 to 9.35 µM) | 5 to 50 (≈ 9.35 to 93.5 µM) | 1 to 5 (≈ 1.87 to 9.35 µM) | 1 to 5 |
| O=c1c(OCc2ccccc2)c(N2CCN(Cc3c(Cl)cccc3Cl)CC2)cnn1-c1ccccc1 [compound 339] | 1 to 5 (≈ 1.92 to 9.59 µM) | 1 to 5 (≈ 1.92 to 9.59 µM) | 5 to 50 (≈ 9.59 to 95.9 µM) | 1 to 5 (≈ 1.92 to 9.59 µM) | 1 to 5 |
| O=c1c(OC2Cc3ccccc3C2)c(N2CCN(Cc3cccs3)CC2)cnn1-c1ccccc1 [compound 428] | 5 to 50 (≈ 10.3 to 103 µM) | 1 to 5 (≈ 2.06 to 10.3 µM) | 5 to 50 (≈ 10.3 to 103 µM) | 0.5 to 1 (≈ 1.03 to 2.06 µM) | 1 to 5 |
| Cc1nc[nH]c1CN1CCN(c2cnn(-c3ccccc3)c(=O)c2SCc2ccccc2)CC1 [compound 17] | 5 to 50 (≈ 10.6 to 106 µM) | 5 to 50 (≈ 10.6 to 106 µM) | 5 to 50 (≈ 10.6 to 106 µM) | 5 to 50 (≈ 10.6 to 106 µM) | 5 to 50 |
